From the NIST ThermoML archive (doi:10.1021/je301095j)

Experiment: xn = mol fraction of the nth substance listed
Settings: 101 kPa, Liquid; for kinematic viscosity: Capillary tube (Ostwald / Ubbelohde) method; for mass density: Vibrating tube method

COCCOC [1,2-dimethoxyethane] + CCCCCCCCO
Settings	kinematic viscosity [m2/s]	mass density [kg/m3]
283.15 K, x1 = 0.06697	1.152e-05	833.91
283.15 K, x1 = 0.1224	8.912e-06	835.41
283.15 K, x1 = 0.2171	5.951e-06	838.23
283.15 K, x1 = 0.3108	4.177e-06	841.31
283.15 K, x1 = 0.4036	3.014e-06	844.65
283.15 K, x1 = 0.5046	2.16e-06	848.72
283.15 K, x1 = 0.593	1.65e-06	852.66
283.15 K, x1 = 0.6949	1.225e-06	857.74
283.15 K, x1 = 0.7907	9.43e-07	863.1
283.15 K, x1 = 0.8983	7.18e-07	870.05
283.15 K, x1 = 0.9329	6.62e-07	872.53
293.15 K, x1 = 0.06547	8.238e-06	826.71
293.15 K, x1 = 0.1085	6.898e-06	827.8
293.15 K, x1 = 0.208	4.672e-06	830.48
293.15 K, x1 = 0.3098	3.277e-06	833.51
293.15 K, x1 = 0.4069	2.39e-06	836.71
293.15 K, x1 = 0.5036	1.79e-06	840.25
293.15 K, x1 = 0.5981	1.37e-06	844.1
293.15 K, x1 = 0.6905	1.07e-06	848.29
293.15 K, x1 = 0.7963	8.12e-07	853.72
293.15 K, x1 = 0.896	6.42e-07	859.6
293.15 K, x1 = 0.9434	5.8e-07	862.69
303.15 K, x1 = 0.05281	6.333e-06	819.29
303.15 K, x1 = 0.2029	3.707e-06	822.86
303.15 K, x1 = 0.2197	3.499e-06	823.3
303.15 K, x1 = 0.299	2.72e-06	825.44
303.15 K, x1 = 0.3826	2.122e-06	827.89
303.15 K, x1 = 0.4984	1.531e-06	831.64
303.15 K, x1 = 0.6107	1.14e-06	835.78
303.15 K, x1 = 0.6969	9.2e-07	839.34
303.15 K, x1 = 0.8038	7.15e-07	844.34
303.15 K, x1 = 0.892	5.86e-07	849.04
303.15 K, x1 = 0.935	5.35e-07	851.56
313.15 K, x1 = 0.05472	4.688e-06	812.24
313.15 K, x1 = 0.1071	3.922e-06	813.31
313.15 K, x1 = 0.2145	2.8e-06	815.67
313.15 K, x1 = 0.2882	2.251e-06	817.43
313.15 K, x1 = 0.4028	1.643e-06	820.44
313.15 K, x1 = 0.5028	1.27e-06	823.38
313.15 K, x1 = 0.5955	1.008e-06	826.4
313.15 K, x1 = 0.6897	8.07e-07	829.8
313.15 K, x1 = 0.7898	6.45e-07	833.92
313.15 K, x1 = 0.8945	5.16e-07	838.85
313.15 K, x1 = 0.9681	4.44e-07	842.83

COCCOC [1,2-dimethoxyethane] + CCCCCO
Settings	kinematic viscosity [m2/s]	mass density [kg/m3]
283.15 K, x1 = 0.04484	5.31e-06	824.28
283.15 K, x1 = 0.07064	–	825.63
283.15 K, x1 = 0.1021	4.09e-06	827.27
283.15 K, x1 = 0.2104	2.73e-06	833.01
283.15 K, x1 = 0.3077	2.01e-06	838.24
283.15 K, x1 = 0.4078	1.54e-06	843.7
283.15 K, x1 = 0.4902	1.27e-06	848.25
283.15 K, x1 = 0.5751	–	853
283.15 K, x1 = 0.712	8.27e-07	860.78
283.15 K, x1 = 0.7978	7.25e-07	865.75
283.15 K, x1 = 0.8137	–	866.69
283.15 K, x1 = 0.8957	6.35e-07	871.5
283.15 K, x1 = 0.9347	–	873.81
283.15 K, x1 = 0.9473	5.96e-07	874.57
293.15 K, x1 = 0.04837	3.98e-06	816.95
293.15 K, x1 = 0.07064	–	818.04
293.15 K, x1 = 0.09244	3.32e-06	819.11
293.15 K, x1 = 0.1962	–	824.24
293.15 K, x1 = 0.2048	2.24e-06	824.66
293.15 K, x1 = 0.3078	1.65e-06	829.83
293.15 K, x1 = 0.408	1.28e-06	834.94
293.15 K, x1 = 0.497	1.05e-06	839.55
293.15 K, x1 = 0.595	8.65e-07	844.67
293.15 K, x1 = 0.6985	7.25e-07	850.18
293.15 K, x1 = 0.7088	–	850.73
293.15 K, x1 = 0.7978	6.17e-07	855.54
293.15 K, x1 = 0.8137	–	856.41
293.15 K, x1 = 0.896	5.4e-07	860.92
293.15 K, x1 = 0.9071	–	861.54
293.15 K, x1 = 0.9541	5.01e-07	864.14
303.15 K, x1 = 0.04441	3.14e-06	809.26
303.15 K, x1 = 0.1118	2.45e-06	812.32
303.15 K, x1 = 0.1947	1.89e-06	816.15
303.15 K, x1 = 0.3088	1.39e-06	821.48
303.15 K, x1 = 0.4056	1.11e-06	826.06
303.15 K, x1 = 0.4948	9.29e-07	830.35
303.15 K, x1 = 0.6215	–	836.52
303.15 K, x1 = 0.7076	6.5e-07	840.79
303.15 K, x1 = 0.8038	5.69e-07	845.62
303.15 K, x1 = 0.8519	–	848.06
303.15 K, x1 = 0.8998	5.08e-07	850.52
303.15 K, x1 = 0.9524	4.8e-07	853.23
313.15 K, x1 = 0.06014	2.34e-06	802.42
313.15 K, x1 = 0.0969	2.08e-06	803.97
313.15 K, x1 = 0.1159	–	804.76
313.15 K, x1 = 0.2221	–	809.31
313.15 K, x1 = 0.3249	1.13e-06	813.76
313.15 K, x1 = 0.4049	9.58e-07	817.27
313.15 K, x1 = 0.4955	8.09e-07	821.28
313.15 K, x1 = 0.599	6.82e-07	825.94
313.15 K, x1 = 0.7001	5.86e-07	830.56
313.15 K, x1 = 0.801	5.16e-07	835.25
313.15 K, x1 = 0.9031	4.59e-07	840.05
313.15 K, x1 = 0.9604	4.34e-07	842.78
